These results are taken from BindingDB's records for patent US8497376 (Janssen Pharmaceutica, 2013).

pIC50: −log10 of the molar value.

The assay concerns the target Macrophage colony-stimulating factor 1 receptor (Homo sapiens, UniProt P07333). Briefly: Fluorescence Polarization Competition Assay. The following applies: pH 7.5. From the text: An autophosphorylation, fluroescence polarization competition immunoassay was used to determine the potency for c-fms inhibition.
For orientation: Polarisation of emitted light reports the rotation of a fluorescent probe.

Macrophage colony-stimulating factor 1 receptor, sequence (P07333 whole entry): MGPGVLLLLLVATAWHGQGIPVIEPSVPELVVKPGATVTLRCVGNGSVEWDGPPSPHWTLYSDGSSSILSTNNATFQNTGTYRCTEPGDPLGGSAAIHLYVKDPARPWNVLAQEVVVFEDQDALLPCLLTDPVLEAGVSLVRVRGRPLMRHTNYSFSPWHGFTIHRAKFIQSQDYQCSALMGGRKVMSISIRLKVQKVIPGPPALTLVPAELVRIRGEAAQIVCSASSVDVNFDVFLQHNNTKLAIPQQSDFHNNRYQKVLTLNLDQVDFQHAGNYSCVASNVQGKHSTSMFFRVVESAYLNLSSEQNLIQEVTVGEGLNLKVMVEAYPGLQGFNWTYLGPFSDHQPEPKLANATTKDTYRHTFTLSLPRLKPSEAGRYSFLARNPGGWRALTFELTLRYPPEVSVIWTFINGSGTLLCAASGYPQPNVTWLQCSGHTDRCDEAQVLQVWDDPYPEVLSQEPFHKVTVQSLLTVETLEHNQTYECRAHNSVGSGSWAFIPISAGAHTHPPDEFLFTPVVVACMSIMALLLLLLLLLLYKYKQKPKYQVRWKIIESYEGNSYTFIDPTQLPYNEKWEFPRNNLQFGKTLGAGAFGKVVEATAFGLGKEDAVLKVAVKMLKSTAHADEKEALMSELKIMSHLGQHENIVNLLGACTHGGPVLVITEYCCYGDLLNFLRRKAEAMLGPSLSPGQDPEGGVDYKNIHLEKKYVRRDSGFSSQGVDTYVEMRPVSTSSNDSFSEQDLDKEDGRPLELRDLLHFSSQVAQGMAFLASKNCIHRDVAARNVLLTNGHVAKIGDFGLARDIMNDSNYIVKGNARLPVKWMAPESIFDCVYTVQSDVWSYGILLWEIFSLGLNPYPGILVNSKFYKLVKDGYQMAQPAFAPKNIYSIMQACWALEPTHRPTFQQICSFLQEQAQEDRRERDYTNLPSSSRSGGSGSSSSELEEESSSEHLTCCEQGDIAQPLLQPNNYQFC

In general, pIC50 refers to the IC50 on a negative log10 scale, so that one unit is a factor of ten. A higher pIC50 goes with a low IC50. With `CC1(C)CC=C(c2cc([C@]3(O)C[C@@]4(CO)C=C[C@@](CO)(C3)O4)ccc2NC(=O)c2ncc(C#N)[nH]2)CC1` [US8497376, 2], the pIC50 was 9.37.
